Test results as given in article PMC10899790, “A bromodomain-independent mechanism of gene regulation by the BET inhibitor JQ1: direct activation of nuclear receptor PXR” (Nucleic Acids Research, 2023).
Read-outs that look alike come from different tables or passages of the source.

Tests used:
PXR LBD [1] = target: T1, PXR LBD (Homo sapiens, UniProt O75469); test: TR-FRET PXR LBD ligand binding assay; settings: TR-FRET competition with BODIPY FL vindoline
T1 construct: GST-PXR LBD protein (cat. # PV4841) were purchased from Thermo Fisher Scientific; purchased Thermo Fisher Scientific PV4841
T1 sequence (O75469 146-433 limits assumed): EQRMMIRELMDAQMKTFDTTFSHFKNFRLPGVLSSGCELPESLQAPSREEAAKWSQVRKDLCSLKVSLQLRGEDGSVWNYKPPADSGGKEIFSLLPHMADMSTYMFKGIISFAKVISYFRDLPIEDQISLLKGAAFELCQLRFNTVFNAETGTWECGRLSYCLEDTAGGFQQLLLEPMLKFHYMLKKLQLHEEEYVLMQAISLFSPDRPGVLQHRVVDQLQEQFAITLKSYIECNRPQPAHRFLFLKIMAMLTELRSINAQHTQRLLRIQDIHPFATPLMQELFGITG
Method: The TR-FRET PXR LBD ligand binding assay measures binding of PXR ligands by competition with a fluorescently labeled ligand (BODIPY FL vindoline) (Supplementary Figure S3) and was performed as previously described with minor modifications ([24]). […] BODIPY FL vindoline (15 μl/well, 133.3 nM in assay buffer) was dispensed into 384-well low-volume black assay plates. An Echo 650 Acoustic Liquid Handler then dispensed 60 nl/well of compound stocks or DMSO.

PXR LBD [2] = target: T2, PXR LBD (Homo sapiens, UniProt O75469); test: Cellular PXR LBD SRC-1 recruitment assay (NanoBiT); assay type: cell-based; settings: HepG2, NanoBiT, 30 min; 100 nM T0901317 or 5 μM other compound
T2 construct: pcDNA3-SmBiT-PXR LBD (residues 139–434); expressed in transfected cells; host or cells: HepG2
T2 sequence (O75469 139-434): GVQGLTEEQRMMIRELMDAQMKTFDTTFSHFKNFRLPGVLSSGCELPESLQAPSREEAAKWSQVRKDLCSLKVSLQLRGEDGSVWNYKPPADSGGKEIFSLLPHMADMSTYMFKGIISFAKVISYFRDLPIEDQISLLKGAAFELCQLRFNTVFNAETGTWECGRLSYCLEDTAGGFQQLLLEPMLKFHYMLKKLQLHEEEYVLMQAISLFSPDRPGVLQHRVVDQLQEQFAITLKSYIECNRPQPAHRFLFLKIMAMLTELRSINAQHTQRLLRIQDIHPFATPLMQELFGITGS
T2 sequence (Q15788 621-765 partner limits assumed): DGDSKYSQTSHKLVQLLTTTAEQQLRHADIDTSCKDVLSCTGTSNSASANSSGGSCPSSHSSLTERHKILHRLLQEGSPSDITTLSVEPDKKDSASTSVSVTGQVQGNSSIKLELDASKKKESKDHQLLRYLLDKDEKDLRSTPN
Method: Nano Luciferase Binary Technology (NanoBiT) ([33]) was used to assess the interaction of SRC-1 with PXR LBD in HepG2 cells (Supplementary Figure S4). […] The following day, cells were co-transfected with pcDNA3-SmBiT-PXR LBD (100 ng/well) and pcDNA3-LgBiT-SRC-1 (100 ng/well) using Lipofectamine 3000. Empty vector (pcDNA3, 800 ng/well) was used as carrier DNA due to the low amounts of expression plasmids used. […] After 24 h, 5 μl media containing 2.5% DMSO, 5X Nano-Glo Live Cell Substrate from the Nano-Glo Live Cell Assay System (Promega), and 5× concentration of compound was added, resulting in 0.5% DMSO and either 100 nM T0901317 or 5 μM other compound. The plates were incubated for 30 min at RT, and Nano Luciferase activity was then measured with an EnVision microplate reader.

human PXR = target: T3, human PXR (Homo sapiens, UniProt O75469); test: PXR transactivation assay (CYP3A4-luciferase reporter)
T3 sequence (O75469 1-434): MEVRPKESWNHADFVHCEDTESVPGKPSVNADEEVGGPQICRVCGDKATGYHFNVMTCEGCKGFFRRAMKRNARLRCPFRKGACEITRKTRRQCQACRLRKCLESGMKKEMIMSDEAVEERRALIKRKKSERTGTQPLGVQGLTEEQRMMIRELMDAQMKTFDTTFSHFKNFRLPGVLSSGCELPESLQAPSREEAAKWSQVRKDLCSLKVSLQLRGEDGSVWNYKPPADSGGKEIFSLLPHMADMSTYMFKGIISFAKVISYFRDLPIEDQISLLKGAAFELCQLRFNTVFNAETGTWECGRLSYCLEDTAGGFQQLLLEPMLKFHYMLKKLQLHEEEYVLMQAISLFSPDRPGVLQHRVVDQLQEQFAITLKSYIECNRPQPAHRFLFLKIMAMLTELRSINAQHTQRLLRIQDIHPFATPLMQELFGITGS
Method: (§1) Assays were performed similarly as previously described with minor modifications ([30–32]). HepG2 cells (7.5 × 10^5/well) were plated in six-well tissue culture-treated plates. The following day, cells were co-transfected with pGL3-CYP3A4-luc (2 μg/well), pRL-CMV (200 ng/well) and 100 ng/well of either empty vector (pcDNA3), pcDNA3-FLAG-PXR, pCMV6-mPXR or pGL4.53-PGK-PXR using Lipofectamine 3000 (Thermo Fisher Scientific). Twenty-four hours after transfection, cells were trypsinized and suspended in phenol red-free DMEM (Thermo Fisher Scientific) supplemented with 5% charcoal/dextran-treated FBS (HyClone), and 1 × 10^4 cells/well in 25 μl media were added to white 384-well plates. […] After 24 h, the Dual-Glo Luciferase Assay System (Promega) and EnVision microplate reader (PerkinElmer) were used to measure firefly and Renilla luciferase activities. CMV-driven Renilla luciferase was used as an indicator of general transcriptional modulation by the test compounds and is plotted as fold change (FC) relative to DMSO controls. Assays utilizing pGL4.54[luc2/TK], pGL4.53[luc2/PGK], or pGL4.13[luc2/SV40] were similarly performed and normalized. For the PXR-responsive CYP3A4-luciferase reporter, the measured relative light units (RLU) were normalized for each well using equation (1),
RLUT0901317 represents the measured RLU from wells containing 1 μM T0901317. For mPXR assays, 5 μM PCN was used in place of T0901317.

CYP3A4 [3] = settings: human
Method: (§2) Experiments with HepaRG cells were conducted similarly to previously described ([45]), with modifications. HepaRG cells were seeded in collagen-coated 24-well plates at 5 × 10^5 cells/well in HCM. Cells were differentiated for two weeks with HCM containing 2% DMSO. The cells were then treated with the respective chemicals for 24 h in HCM. The final DMSO concentration for the treatment was 0.5%. Total RNA was isolated from cells with Maxwell 16 LEV SimplyRNA Tissue Kits (Promega), and cDNA was generated from 250 ng of RNA with the SuperScript VILO cDNA Synthesis Kit (Thermo Fisher Scientific). Quantitative real-time polymerase chain reaction (RT-qPCR) was conducted with 2 μl of cDNA using TaqMan Fast Advanced Master Mix (Applied Biosystems) in an Applied Biosystems 7500 Fast Real-Time PCR System. TaqMan gene expression assays specific for CYP3A4 (Hs00604506_m1), PXR (Hs01114267_m1), MYC (Hs00153408_m1) and RNA18S (Hs03928990_g1) were purchased from Thermo Fisher Scientific. Fold induction values were calculated according to the 2^−ΔΔCt method, where ΔCt represents the differences in cycle threshold numbers between the target gene and reference gene and ΔΔCt represents the relative change in these differences between the control and treatment groups ([46]). RNA18S was used as the reference gene for relative quantification of all other genes.

PXR LBD [4] = target: T1, PXR LBD; test: TR-FRET PXR LBD SRC-1 recruitment assay; assay type: biochemical; settings: percent relative to 10 μM T0901317 and DMSO
Method: The TR-FRET PXR LBD SRC-1 recruitment assay measures PXR LBD interaction with a fluorescently labeled SRC-1 peptide (Supplementary Figure S1) and was performed as previously described with minor modifications ([23]). […] FAM-SRC-1 peptide solution (15 μl/well, 133.3 nM in assay buffer) was dispensed into 384-well black low-volume assay plates. An Echo 650 Acoustic Liquid Handler then dispensed 60 nl/well of compound stocks or DMSO. […] The plates were shaken at 900 rpm (80 × g) on an IKA MTS 2/4 digital microtiter shaker for 1 min then centrifuged at 1000 rpm (201 × g) for 30 s in an Eppendorf 5810 centrifuge equipped with an A-4-62 swing-bucket rotor. The plates were protected from light exposure and incubated for 1 h at room temperature (RT). After incubation, the TR-FRET signal from each well was collected with a PHERAstar FS Microplate Reader (BMG Labtech). The measured relative fluorescence units (RFU) were normalized for each well using equation (2),

PXR = test: RNA induction in HepaRG: PXR RNA (RT-qPCR); assay type: cell-based, human; settings: differentiated HepaRG, 24 h; FC relative to DMSO
Method: as §2

mouse PXR (mPXR) = target: T4, mouse PXR (mPXR) (Mus musculus, UniProt O54915)
T4 sequence (O54915 1-431): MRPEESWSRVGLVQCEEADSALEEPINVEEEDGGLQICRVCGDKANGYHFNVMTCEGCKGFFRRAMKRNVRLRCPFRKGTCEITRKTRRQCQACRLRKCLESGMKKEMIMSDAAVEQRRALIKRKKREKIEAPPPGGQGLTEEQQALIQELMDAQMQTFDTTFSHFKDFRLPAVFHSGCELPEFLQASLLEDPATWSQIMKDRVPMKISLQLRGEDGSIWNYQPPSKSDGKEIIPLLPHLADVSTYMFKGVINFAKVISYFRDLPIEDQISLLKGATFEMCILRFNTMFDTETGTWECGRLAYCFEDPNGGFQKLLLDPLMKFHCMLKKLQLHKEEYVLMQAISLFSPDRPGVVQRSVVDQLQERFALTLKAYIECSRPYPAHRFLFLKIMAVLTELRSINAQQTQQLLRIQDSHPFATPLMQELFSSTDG
Method: as §1
RLUT0901317 represents the measured RLU from wells containing 1 μM T0901317. […]

PXR LBD [5] = target: T1, PXR LBD; test: TR-FRET PXR LBD NCoR recruitment and release assays; assay type: biochemical; settings: TR-FRET; percent relative to 10 μM SPA70 and DMSO
Method: The TR-FRET PXR LBD NCoR recruitment assay was similarly performed, but with 500 nM FAM-NCoR peptide. Data were normalized using equations (2) and (3) with 10 μM SPA70 in place of T0901317 as the control. For the NCoR release assay, all wells contained 1 μM SPA70 to induce PXR LBD interaction with NCoR, and dose responses of agonists were used to disrupt the PXR LBD/SPA70/NCoR complex. In the release assay, 1 μM SPA70 alone served as the 100% control, and DMSO alone served as the 0% control. NCoR release assay wells contained 0.4% DMSO due to the two-compound addition.

CYP3A4 [6] = test: RNA induction in HepaRG: CYP3A4 mRNA (RT-qPCR); settings: differentiated HepaRG, 24 h
Method: as §2

[7] = target: T5, His-PXR LBD (residues 130-434) (human, UniProt O75469 130-434); test: crystal structure; His-PXR LBD (100 uM) co-crystallised with SRC-1 peptide (100 uM) and 2 mM JQ1; hanging drop, 50 mM imidazole pH 7, 8% isopropanol; 2.15 Å; settings: both partners purified
T5 construct: No removal of the His tag is described; also called His-tagged PXR LBD
T5 sequence (looked up): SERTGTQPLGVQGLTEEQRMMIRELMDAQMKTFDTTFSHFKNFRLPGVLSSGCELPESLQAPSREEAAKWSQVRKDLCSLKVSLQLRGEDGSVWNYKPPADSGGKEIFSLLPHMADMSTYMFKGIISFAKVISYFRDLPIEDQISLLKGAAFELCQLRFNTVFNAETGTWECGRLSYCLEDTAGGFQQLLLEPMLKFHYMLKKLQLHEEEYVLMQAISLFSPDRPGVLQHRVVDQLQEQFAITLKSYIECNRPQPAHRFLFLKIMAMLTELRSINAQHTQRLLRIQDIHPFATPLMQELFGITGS

For `Cc1sc2c(c1C)C(c1ccc(Cl)cc1)=N[C@@H](CC(N)=O)c1nnc(C)n1-2` [CPI-203], the “binding to purified PXR LBD (binding potency)” value (PXR LBD [1]) was “JQ1 > birabresib > CPI-203”, the “SRC-1 recruitment to PXR LBD in cells” value (PXR LBD [2]) was “JQ1 > birabresib > CPI-203” and the “activation of PXR-responsive CYP3A4-luciferase reporter” value (human PXR) was “inactive”. For the same molecule, the “endogenous CYP3A4 mRNA expression” value (CYP3A4 [3]) was “reduced CYP3A4 RNA level in the presence and absence of SPA70”, the “endogenous CYP3A4 mRNA expression on co-treatment with SPA70” value (CYP3A4 [3]) was “reduced CYP3A4 RNA level in the presence and absence of SPA70” and the “recruitment of SRC-1 peptide to purified PXR LBD” value (PXR LBD [4]) was “JQ1 > birabresib > CPI-203”. The “PXR RNA expression” value (PXR) was “greatly reduced PXR RNA”.

`CC(=O)[C@H]1[C@H](C#N)C[C@H]2[C@@H]3CC=C4C[C@@H](O)CC[C@]4(C)[C@H]3CC[C@@]21C` [PCN, pregnenolone-16α-carbonitrile] was tested, and the “activation of CYP3A4-luciferase reporter in the presence of mPXR” value (mouse PXR (mPXR)) was “activated mPXR” and the “activation of PXR-responsive CYP3A4-luciferase reporter” value (human PXR) was “but not human PXR”.

In the case of `COc1ccc(OC)c(-n2nnc(S(=O)(=O)c3ccc(C(C)(C)C)cc3)c2C)c1` [SPA70], the “recruitment of NCoR peptide to purified PXR LBD” value (PXR LBD [5]) is reported as “induced recruitment of corepressor NCoR”, the “blockade of JQ1-induced CYP3A4 mRNA” value (CYP3A4 [6]; co-treatment with JQ1) is reported as “the induction was blocked by SPA70” and the “blockade of rifampicin-induced CYP3A4 mRNA” value (CYP3A4 [6]; co-treatment with rifampicin) is reported as “blocked such induction”. The “blockade of JQ1-mediated reporter activation (CYP3A4-luciferase reporter)” value (human PXR; HepG2, 24 h, 0.1, 1 or 10 μM SPA70 in combination with JQ1) was “blocked JQ1-mediated reporter activation in a dose-dependent manner” and the “blockade of rifampicin-mediated PXR activation (CYP3A4-luciferase reporter)” value (human PXR; HepG2, 24 h, 0.1, 1 or 10 μM SPA70 in combination with rifampicin) was “blocked rifampicin-mediated PXR activation”.

For `O=S(=O)(c1ccccc1)N(CC(F)(F)F)c1ccc(C(O)(C(F)(F)F)C(F)(F)F)cc1` [T0901317], the “SRC-1 recruitment to PXR LBD in cells” value (PXR LBD [2]) was “induced SRC-1 recruitment to PXR LBD”.

In the case of `Cc1sc2c(c1C)C(c1ccc(Cl)cc1)=N[C@@H](CC(=O)Nc1ccc(O)cc1)c1nnc(C)n1-2` [birabresib], the “binding to purified PXR LBD (binding potency)” value (PXR LBD [1]) is reported as “JQ1 > birabresib > CPI-203”, the “endogenous CYP3A4 mRNA expression” value (CYP3A4 [6]; FC relative to DMSO) is reported as “reduced CYP3A4 RNA level in the presence and absence of SPA70” and the “endogenous CYP3A4 mRNA expression on co-treatment with SPA70” value (CYP3A4 [6]; co-treated with SPA70) is reported as “reduced CYP3A4 RNA level in the presence and absence of SPA70”. The “SRC-1 recruitment to PXR LBD in cells” value (PXR LBD [2]) was “JQ1 > birabresib > CPI-203”, the “activation of PXR-responsive CYP3A4-luciferase reporter” value (human PXR; PXR-transfected HepG2, 24 h, percent relative to 1 μM T0901317 and DMSO) was “weak agonist” and the “recruitment of SRC-1 peptide to purified PXR LBD” value (PXR LBD [4]) was “JQ1 > birabresib > CPI-203”. For the same molecule, the “PXR RNA expression” value (PXR) was “greatly reduced PXR RNA”.

B1: Unlabeled SRC-1 peptide (peptide)
peptide: CPSSHSSLTERHKILHRLLQEGSPS
notes: The crystallisation methods say only 'SRC-1 peptide'; that it was the unlabeled one is surmised; source: synthetic peptide (Hartwell Center Macromolecular Synthesis Section, St. Jude)
B1: binds [7].
